The structures appear in SMILES notation. Read-outs that look alike come from different tables or passages of the source.

The subject of data set [1] is HIV-1. Kind of data set: HeLa CD4 LTR β-gal/HL2/3 HIV-1 fusion assay. Type of data set: cell-based. Particulars: fusion assay. The source says:
This assay uses the HeLa CD4 LTR β-gal and HL2-3 cells available from the AIDS Research and Reference Reagent Repository. The HL2/3 are derived from HeLa cells and engineered to express HIV gp120 on their cell surface and Tat protein in their cytoplasma. Thus following gp 120/CD4/coreceptor-mediated fusion; cytoplasmic mixing results in the HL2/3 cell-derived Tat trans-activation of the β-galactosidase reporter. […] Twenty-four h prior to initiation of the assay cells were trypsinized, counted and 5×10^3 cells placed in a 0.2 cm well in media without selection antibiotics. To initiate the fusion assay HeLa CD4 LTR β-gal (5×10^3 cells per 0.2 cm well) were incubated with compound for 1 h at 37° C. HL2/3 cells (5×10^3) were added to the 0.2 cm well and the incubation continued for 48 h. At 48 h the wells were washed 1 time with PBS and β-galactosidase enzyme expression determined by chemiluminescence per manufacturers instructions (Tropix Gal-screen™, Tropix, Bedford, Mass.). Compound toxicity was monitored on sister plates using MTS dye reduction.

Data set [2] concerns HeLa CD4 LTR β-gal cells. The data set can be described thus: Compound toxicity in attachment assay (MTS dye reduction, sister plates). Type of data set: cell-based. The note with it: read-out: TC50 (the source's name). As for the experimental part: At assay termination the assay plates were stained with the soluble tetrazolium-based dye MTS (CellTiter96® Reagent Promega) to determine cell viability and quantify compound toxicity. MTS is metabolized by the mitochondria enzymes of metabolically active cells to a soluble formazan product, allowing the rapid quantitative analysis cell viability and compound cytotoxicity. […] At termination of the assay 20 μL of MTS reagent was added per well and incubated for 4 h at 37° C. Adhesive plate sealers were used in place of the lids, the sealed plate was inverted several times to mix the soluble formazan product and the plate was read spectrophotometrically at 490 nm with a Molecular Devices Vmax plate reader.
The attachment assay was performed with the HeLa CD4 LTR , β-gal cells available from the AIDS Research and Reference Reagent Repository. […] HeLa CD4 LTR β-gal cells express cell surface CD4 and contain an LTR β-galactosidase reporter construct. Upon infection either the Tat protein incorporated into the virion or new Tat produced following virus integration and transcription trans-activates the LTR β-gal reporter, leading to expression of the β-galactosidase enzyme. HeLa CD4 LTR β-gal cells are routinely cultured with the required selection antibiotics and screened for mycoplasma contamination. Twenty-four h prior to initiation of the assay cells were trypsinized, counted and 1×10^4 cells placed in a 0.2 cm well in media without selection antibiotics. Media was removed at 24 h and compound in media placed on the cells and incubated for 15 to 30 min at 37° C. A known titer of virus was then added to the wells and the incubation continued for 1 h. At the end of the incubation the wells were washed 6 times with media and the culture continued for 48 h. At 48 h the wells were washed one time with PBS and β-galactosidase enzyme expression determined by chemiluminescence per manufacturers instructions (Tropix Gal-screen™, Tropix, Bedford, Mass.). Compound toxicity was monitored on sister plates using MTS dye reduction.
A general note: Tetrazolium dyes change colour on reduction, which living cells bring about.

As for `C=C(C)[C@@H]1CCC(C)=C[C@H]1c1c(O)cc(CCCCC)cc1O` [Cannabidiol, reference compound], the “Comments: suppression of β-galactosidase activity” value in data set [1] is recorded as “Suppression of β-galactosidase”.
Consider `CC(C)=CCCC1(C)CCc2c(O)cc(C(C)(C)CCCC(C)C)cc2O1` (stereo not shown) [IG-08, 3,4-Dihydro-2-methyl-2-(4-methyl-3-pentenyl)-7-(1,1,5-trimethylhexyl)-2H-1-benzopyran-5-ol], for which the CC50 in data set [2] (Experiment 1, pretreat 0 h) was above 50 µM; in data set [2] (Experiment 1, pretreat 4 h) it was above 50 µM; in data set [2] (Experiment 1, pretreat 24 h), above 50 µM; in data set [2] (Experiment 2, pretreat 0 h), above 50 µM; in data set [2] (Experiment 2, pretreat 4 h), 29 µM; in data set [2] (Experiment 2, pretreat 24 h) it was 12.2 µM.
